The target of one assay is T1, Pnp1 (Saccharomyces cerevisiae, UniProt Q05788).
T1 construct: recombinant, overexpressed in yeast ORF collection strain (Dharmacon), purified; monomeric mass 33 kDa
T1 sequence (Q05788 2-311): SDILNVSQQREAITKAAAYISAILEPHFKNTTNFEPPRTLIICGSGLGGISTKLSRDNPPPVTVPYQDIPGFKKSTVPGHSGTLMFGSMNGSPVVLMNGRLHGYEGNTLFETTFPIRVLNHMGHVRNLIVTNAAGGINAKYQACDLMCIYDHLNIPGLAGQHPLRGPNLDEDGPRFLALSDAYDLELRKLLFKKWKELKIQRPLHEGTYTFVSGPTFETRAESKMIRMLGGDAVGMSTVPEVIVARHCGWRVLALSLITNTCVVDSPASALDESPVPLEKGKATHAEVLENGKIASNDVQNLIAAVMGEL
Nature of the assay: LC-MS assay of inosine conversion to hypoxanthine. It is filed as biochemical.

Another assay has as its target T2, Pgk1 (Saccharomyces cerevisiae, UniProt P00560).
T2 sequence (P00560 2-416): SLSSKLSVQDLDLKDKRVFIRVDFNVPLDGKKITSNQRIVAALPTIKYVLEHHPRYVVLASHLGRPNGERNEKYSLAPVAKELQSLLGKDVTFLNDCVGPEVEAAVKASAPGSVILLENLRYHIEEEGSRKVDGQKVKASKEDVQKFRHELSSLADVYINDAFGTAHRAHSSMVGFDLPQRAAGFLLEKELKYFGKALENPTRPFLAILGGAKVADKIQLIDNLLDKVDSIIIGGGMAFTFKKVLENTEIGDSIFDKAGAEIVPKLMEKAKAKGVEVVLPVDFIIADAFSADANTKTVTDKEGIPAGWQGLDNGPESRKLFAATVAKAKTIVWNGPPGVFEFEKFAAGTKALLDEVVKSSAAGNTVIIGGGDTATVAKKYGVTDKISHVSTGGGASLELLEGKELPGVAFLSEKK
Nature of the assay: microscale thermophoresis.

Where a SMILES comes first, the peptide text is derived from it.

One may read the inhibition as the relative decrease from the control value, in per cent. High values mean strong suppression, low ones little suppression. A word on the Kd: it is the equilibrium constant for the complex coming apart. Lower therefore signals a tighter complex.

Regarding `O=c1[nH]c(=O)c2[nH]cnc2[nH]1` [xanthine], the inhibition at 100 µM against Pnp1 was less than 32%.

Regarding `Nc1ncnc2c1ncn2[C@@H]1O[C@H](COP(=O)(O)OP(=O)(O)OP(=O)(O)O)[C@@H](O)[C@H]1O` [ATP], the Kd on Pgk1 was found to be 122 µM.

Take `CC(C)C[C@H](NC(=O)[C@@H](N)CO)C(=O)O` [Ser-Leu] (H-Ser-Leu-OH): at Pgk1, the affinity, expressed as Kd, was 416 µM.

The values above are taken from paper PMC7876005 (Communications Biology, 2021).
